Legend:
Type in all cases: cell-based
[1] = target: T1, YES1 (Homo sapiens, UniProt P07947); assay: YES1-GFP protein abundance flow cytometry assay in HEK293A; conditions: for YES1 Amax: % protein remaining at the concentration of maximum degradation; for DC50: HEK293A YES1-GFP sensor cells, 24 h
T1 construct: EGFP (after a Leu that replaces the STOP codon); expressed in transfected cells; host or cells: HEK293A (Invitrogen R70507), lentiviral transduction
Description: (§1) Degradation of BTK, CSK, ABL2, EPHA4 and YES1 was measured in HEK293A cells (Invitrogen R70507) expressing either BTK-GFP and RFP, CSK-GFP and mCherry, GFP-ABL2 and mCherry, EPHA4-GFP and mCherry, or YES1-GFP and mCherry from a stably integrated bicistronic BTK-GFP-iresRFP, CSK-GFP-CHYSEL-mCherry, GFP-ABL2-CHYSEL-mCherry, EPHA4-GFP-CHYSEL-mCherry, or YES1-GFP-CHYSEL-mCherry construct, respectively. Reduction of the GFP signal measured by flow cytometry served as readout for BTK, CSK, ABL2, EPHA4 and YES1 degradation after degrader treatment.
(§2) 293A BTK-GFP-Ires-RFP, CSK-GFP-CHYSEL-mCherry, GFP-ABL2-CHYSEL-mCherry, EPHA4-GFP-CHYSEL-mCherry, or YES1-GFP-CHYSEL-mCherry sensor cells were generated by lentiviral vector transduction using the pLenti6-BTK-GFP-Ires-RFP, pLenti6-mCherryCHYSEL-EGFP-ABL2, pLenti6-CSK-GFP-CHYSEL-mCherry, pLenti6-EPHA4-GFP-CHYSEL-mCherry or pLenti6-YES1-GFP-CHYSEL-mCherry sensor construct described before. Lentiviral particles were produced in HEK293FT cells (Invitrogen R70007) by co-transfection of 500 ng pLenti6-BTK-GFP-Ires-RFP or pLenti6-IKZF3-GFP-Ires-RFP, 500 ng delta8.71 and 200 ng pVSVG diluted in 100 μL OptiMEM serum free medium (Invitrogen #11058-021) that was mixed after 5 min preincubation with 3 μL of Lipofectamine2000 (Invitrogen #11668-019) in 97 μL OptiMEM serum free medium. The mix was incubated for another 20 min at RT and then added on 1 mL of a freshly prepared suspension of HEK293FT cells in a well of a 6-well plate (concentration 1.2×10^6 cells/mL). 1 day after transfection, the medium was replaced with 1.5 mL of complete growth medium (DMEM high Glucose+10% FCS+1% L-Glutamine+1% NEAA+1% NaPyr.). 48 h post transfection supernatant containing viral transducing particles was collected and frozen at −80° C.
(§3) 2 days before transduction with viral particles 1×10^5 HEK293A cells (Invitrogen R70507) were seeded in 2 mL growth medium in a well of a 6-well plate. Infection was performed with 90 μL of collected supernatant containing viral transducing particles in 1 mL medium including 8 µg/mL polybrene. 24 h post infection, stably transfected cells were selected with blasticidin at a concentration of 8 μg/mL referred to as stable HEK293A sensor cells.
(§4) Stable HEK293A sensor cells were maintained in complete growth medium (DMEM high Glucose+10% FCS+1% L-Glutamine+1% NEAA+1% NaPyr.) with passaging performed twice per week. […] GFP and RFP are read in the channels called FITC and PE, respectively.
(§5) Concentration response curves plotting relative reduction of the GFP signal (measured by flow cytometry) versus 10 compound concentrations (starting concentration 10 μM, 3 fold dilution steps) of the compounds allowed generation of DC50 values.

[2] = target: T2, ABL2 (Homo sapiens, UniProt P42684); assay: GFP-ABL2 protein abundance flow cytometry assay in HEK293A; conditions: for ABL2 Amax: % protein remaining at the concentration of maximum degradation; for DC50: HEK293A GFP-ABL2 sensor cells, 24 h
T2 construct: expressed in transfected cells; host or cells: HEK293A (Invitrogen R70507), lentiviral transduction
T2 sequence (P42684 whole entry, looked up): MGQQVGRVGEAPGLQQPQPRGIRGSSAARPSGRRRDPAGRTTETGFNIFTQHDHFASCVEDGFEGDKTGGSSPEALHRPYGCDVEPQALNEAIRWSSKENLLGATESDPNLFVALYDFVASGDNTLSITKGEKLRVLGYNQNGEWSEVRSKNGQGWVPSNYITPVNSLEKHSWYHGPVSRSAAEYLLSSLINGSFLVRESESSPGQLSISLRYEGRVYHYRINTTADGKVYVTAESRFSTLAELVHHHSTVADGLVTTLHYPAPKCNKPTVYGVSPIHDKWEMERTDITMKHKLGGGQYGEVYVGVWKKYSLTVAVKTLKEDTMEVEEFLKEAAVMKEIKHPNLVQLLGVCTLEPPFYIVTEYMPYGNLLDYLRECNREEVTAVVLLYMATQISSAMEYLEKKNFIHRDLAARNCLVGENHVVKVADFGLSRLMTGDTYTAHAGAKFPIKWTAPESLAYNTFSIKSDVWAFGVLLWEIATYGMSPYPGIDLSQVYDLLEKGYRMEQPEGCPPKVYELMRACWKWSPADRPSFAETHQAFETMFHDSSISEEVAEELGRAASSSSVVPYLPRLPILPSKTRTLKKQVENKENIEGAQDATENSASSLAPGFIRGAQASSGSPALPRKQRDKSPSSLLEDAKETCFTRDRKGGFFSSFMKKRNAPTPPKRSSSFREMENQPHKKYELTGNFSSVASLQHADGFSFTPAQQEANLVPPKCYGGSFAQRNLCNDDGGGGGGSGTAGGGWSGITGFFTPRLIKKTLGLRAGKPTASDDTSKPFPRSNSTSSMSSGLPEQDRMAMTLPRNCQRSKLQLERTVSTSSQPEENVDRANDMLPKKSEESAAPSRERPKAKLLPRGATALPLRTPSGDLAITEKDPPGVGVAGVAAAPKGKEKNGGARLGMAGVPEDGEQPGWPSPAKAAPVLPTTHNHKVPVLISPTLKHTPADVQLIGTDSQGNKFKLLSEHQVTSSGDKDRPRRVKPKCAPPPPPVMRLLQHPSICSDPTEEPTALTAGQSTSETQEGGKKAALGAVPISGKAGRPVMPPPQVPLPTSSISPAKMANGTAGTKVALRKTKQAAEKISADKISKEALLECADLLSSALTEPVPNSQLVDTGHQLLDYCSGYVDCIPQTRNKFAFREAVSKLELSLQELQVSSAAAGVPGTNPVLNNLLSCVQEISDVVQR
Description: as §1, §2, §3, §4, §5

[3] = system: HEK293 and TMD8 cells; assay: Proteomics experiment (TMT quantification mass spectrometry of protein abundance); conditions: 1 μM, 6 hours, FIG. 3E
Description: HEK293 and TMD8 cells were treated with 1 μM dasatinib, 1 μM compound 06, 1 μM compound 07 or DMSO and protein abundance was analyzed using TMT quantification mass spectrometry. Significant changes were assessed by limma, log 2 fold changes are shown on the x-axis and p-values on the y-axis. Proteins with kinase annotations in UniProt are shown as squares and kinases with a log2 fold change≤−0.6 and a p-value≤0.01 are labeled with the corresponding gene name.
HEK293 and TMD8 cells were treated for 6 hours with DMSO (3 replicates), 1 μM dasatinib (2 replicates), 1 μM compound 06 (3 replicates) and 1 μM compound 07 (3 replicates), respectively. TMT11plex-labeled peptides were generated with the PreOmics iST-NHS kit according to the manufacturer's protocol (PreOmics, Germany). […] The 24 fractions were analyzed with a 25 cm×75 μm ID, 1.6 μm C18 Aurora Series emitter column (IonOpticks, Australia) on an EASY-nLC 1200 system coupled to an Orbitrap™ Fusion Lumos mass spectrometer (Thermo Fisher Scientific, USA). […] The Proteome Discoverer™ 2.1 software and the SEQUEST algorithm was used for protein identification and relative quantification. Log2 fold changes of protein abundances and p-values were calculated in Python and R with the limma package (Ritchie M E et al. Limma powers differential expression analyses for RNA-sequencing and microarray studies. Nucleic Acids Res. 2015, 43(7):e47).

[4] = target: T3, CSK (Homo sapiens, UniProt P41240); assay: CSK-GFP protein abundance flow cytometry assay in HEK293A; conditions: for CSK Amax: % protein remaining at the concentration of maximum degradation; for DC50: HEK293A CSK-GFP sensor cells, 24 h
T3 construct: EGFP (after a Leu that replaces the STOP codon); expressed in transfected cells; host or cells: HEK293A (Invitrogen R70507), lentiviral transduction
T3 sequence (P41240 whole entry): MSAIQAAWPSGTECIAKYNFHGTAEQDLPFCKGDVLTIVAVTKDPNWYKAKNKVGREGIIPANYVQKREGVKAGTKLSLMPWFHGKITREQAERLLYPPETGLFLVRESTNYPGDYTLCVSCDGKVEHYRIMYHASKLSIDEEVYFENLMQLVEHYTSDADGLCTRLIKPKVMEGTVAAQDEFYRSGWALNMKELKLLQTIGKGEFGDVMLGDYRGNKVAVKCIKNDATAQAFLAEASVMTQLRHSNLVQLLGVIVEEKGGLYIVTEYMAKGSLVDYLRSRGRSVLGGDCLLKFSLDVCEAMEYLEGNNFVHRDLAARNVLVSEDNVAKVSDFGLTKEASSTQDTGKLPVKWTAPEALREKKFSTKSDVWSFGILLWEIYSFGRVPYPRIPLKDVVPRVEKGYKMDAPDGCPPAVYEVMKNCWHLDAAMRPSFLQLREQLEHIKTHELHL
Description: as §1, §2, §3, §4, §5

T1 sequence (P07947 whole entry, looked up): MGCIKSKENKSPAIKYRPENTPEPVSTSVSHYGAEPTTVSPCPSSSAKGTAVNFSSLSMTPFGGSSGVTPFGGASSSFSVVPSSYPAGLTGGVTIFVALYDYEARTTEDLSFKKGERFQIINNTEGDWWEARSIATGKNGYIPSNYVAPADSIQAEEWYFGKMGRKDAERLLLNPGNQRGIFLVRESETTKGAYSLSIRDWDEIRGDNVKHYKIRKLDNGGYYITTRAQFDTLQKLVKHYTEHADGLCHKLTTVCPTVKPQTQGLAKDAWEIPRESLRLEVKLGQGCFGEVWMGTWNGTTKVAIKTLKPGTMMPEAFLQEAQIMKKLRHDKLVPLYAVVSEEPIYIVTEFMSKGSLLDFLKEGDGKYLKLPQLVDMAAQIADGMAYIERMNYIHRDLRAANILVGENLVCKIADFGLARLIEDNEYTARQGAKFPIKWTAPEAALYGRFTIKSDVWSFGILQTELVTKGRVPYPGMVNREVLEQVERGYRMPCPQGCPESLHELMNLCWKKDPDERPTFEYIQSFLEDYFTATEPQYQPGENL

COc1ccc(C(=O)N2CCC3(CCN(C(=O)CCCCCCCN4CCN(c5cc(Nc6ncc(C(=O)Nc7c(C)cccc7Cl)s6)nc(C)n5)CC4)CC3)CC2)cc1N1CCC(=O)NC1=O [compound 06, N-(2-chloro-6-methylphenyl)-2-((6-(4-(8-(9-(3-(2,4-dioxotetrahydropyrimidin-1(2H)-yl)-4-methoxybenzoyl)-3,9-diazaspiro[5.5]undecan-3-yl)-8-oxooctyl)piperazin-1-yl)-2-methylpyrimidin-4-yl)amino)thiazole-5-carboxamide]
YES1 Amax [1]: 4%
DC50 [1]: 0.009 µM
ABL2 Amax [2]: 22%
DC50 [2]: 0.002 µM
degradation of bound kinase targets (proteomics) [3]: able to degrade several of the targets to which they bind
CSK Amax [4]: 4%
DC50 [4]: 0.004 µM

COc1ccc(C(=O)N2CCC3(CCN(C(=O)CN4CCN(c5cc(Nc6ncc(C(=O)Nc7c(C)cccc7Cl)s6)nc(C)n5)CC4)CC3)CC2)cc1N1CCC(=O)NC1=O [compound 07, N-(2-chloro-6-methylphenyl)-2-((6-(4-(2-(9-(3-(2,4-dioxotetrahydropyrimidin-1(2H)-yl)-4-methoxybenzoyl)-3,9-diazaspiro[5.5]undecan-3-yl)-2-oxoethyl)piperazin-1-yl)-2-methylpyrimidin-4-yl)amino)thiazole-5-carboxamide]
YES1 Amax [1]: 11%
DC50 [1]: 0.124 µM
ABL2 Amax [2]: 27%
DC50 [2]: 0.063 µM
degradation of bound kinase targets (proteomics) [3]: able to degrade several of the targets to which they bind
CSK Amax [4]: 1%
DC50 [4]: 0.023 µM
